Test results published in article PMC11195807, “Development of a multi-targeted chemotherapeutic approach based on G-quadruplex stabilisation and carbonic anhydrase inhibition” (Journal of Enzyme Inhibition and Medicinal Chemistry, 2024).

Columns and labels:
GQ structures [1] = assay: BG4 immunofluorescence of GQ foci, HeLa cells in normoxia; format: cell-based; conditions: 24 h, 35.0 µM S-4,0, 40.0 µM C-4,2, 37.5 µM C-5,2, 2 µM RHPS4, over DMSO
Description: After measuring the viability of HeLa cells upon treatment with the newly synthesised MTDLs mentioned above, we probed the capability of the three most cytotoxic ones (S-4,0, C-4,2, and C-5,2) to affect the formation of GQ structures by immunofluorescence (IF) microscopy, using the BG4 antibody that selectively recognises the GQ structures. As it can be noticed in Figure 6, the fluorescence intensity of the total number of GQ foci increased by around 30% after treatment with both the coumarin derivative C-4,2 and the reference GQ binder RHPS4, whereas it was not affected by S-4,0 and C-5,2. […] On the contrary, the levels of GQ structures were influenced neither by the treatment with the sulphonamide S-4,0 nor by the coumarin C-5,2, despite their ability to thermally stabilise some GQ-forming sequences in vitro.
Figure 6. (A) Representative fields showing G4 foci formation detected by immunofluorescence in HeLa cells treated for 24 h with 35.0 µM S-4,0, 40.0 µM C-4,2, and 37.5 µM C-5,2 or an equivalent amount of vehicle (0.1% DMSO). As a positive control, cells were treated with 2 µM RHPS4 (a well-established GQ ligand)[68] for 24 h. Scale bar: 10 µm. Upper panels: the merged channels of BG4-stained GQ structures (magenta) and Hoechst-counterstained nuclei (grey) are reported. Lower panels: enlargements from the pictures in the upper panels. (B) Quantitative analysis of the fluorescence intensity of the total number of GQ foci. An average of 50 cells were screened for each condition and the results are expressed as a fold change of fluorescence intensity (anti-GQ signal) over the negative control (DMSO). Histograms show the mean ± SD of three independent experiments. The statistical significance was calculated using a one-way ANOVA test on GraphPad Prism 8.0.2 (ns: not significant, **: p < 0.01).
For the IF experiments in the presence of normal oxygen levels, HeLa cells were seeded on sterile coverslips, in a 24-well plate, at a density of 90,000 cells per well, and incubated overnight. Then, cells were treated with a sublethal concentration of each investigated MTDL or an equivalent amount of vehicle (0.1% DMSO), for 24 h. As positive control, cells were exposed for 24 h to 2 µM RHPS4. As regards the IF experiments under hypoxic conditions, HeLa were seeded on sterile coverslips, in a 24-well plate, at a density of 50,000 cells per well, and incubated overnight. […] From there, the cellular and nuclear foci were segmented, and their number or fluorescence intensity was quantified by using the Image Analysis package of ZEISS ZEN 3.1 software.

GQ structures [2] = assay: BG4 immunofluorescence of GQ foci, hypoxic HeLa cells; format: cell-based; conditions: hypoxic HeLa cells (50 μM CoCl2 60 h), 1 µM C-4,2 for 12 h, vs DMSO-treated hypoxic cells
Procedure: Finally, we investigated C-4,2 capability to impact the formation of GQ structures even in hypoxic HeLa cells.
Figure 7. (A) Representative fields showing G4 foci formation detected by immunofluorescence in HeLa cells pre-treated with 50 μM cobalt (II) chloride hexahydrate for 60 h to induce hypoxia and then exposed to 1 µM C-4,2 or vehicle (0.1% DMSO) for the following 12 h, still in the presence of CoCl2. DMSO-treated normoxic HeLa cells are also shown. Scale bar: 10 µm. Upper panels: the merged channels of BG4-stained GQ structures (magenta) and Hoechst-counterstained nuclei (grey) are reported. Lower panels: enlargements from the pictures in the upper panels. (B) Quantification of the cellular BG4 foci in DMSO-treated normoxic HeLa cells, DMSO-treated hypoxic HeLa cells, and C-4,2-treated hypoxic HeLa cells. An average of 50 cells were screened for each condition. […] The statistical significance was calculated using a one-way ANOVA test on GraphPad Prism 8.0.2 (**: p < 0.01, ****: p < 0.0001).
For the IF experiments in the presence of normal oxygen levels, HeLa cells were seeded on sterile coverslips, in a 24-well plate, at a density of 90,000 cells per well, and incubated overnight. […] From there, the cellular and nuclear foci were segmented, and their number or fluorescence intensity was quantified by using the Image Analysis package of ZEISS ZEN 3.1 software.

SMILES	increase of fluorescence intensity of the total number of GQ foci (GQ structures [1])	number of detectable GQs (BG4 foci) (GQ structures [2])
COc1ccc2cc3[n+](cc2c1OCCCCn1cc(-c2ccc(S(N)(=O)=O)cc2)nn1)CCc1cc2c(cc1-3)OCO2 [Compound 30, 10-Methoxy-9–(4–(4-(4-sulfamoylphenyl)-1H-1,2,3-triazol-1-yl)butoxy)-5,6-dihydro-[1,3]dioxolo[4,5-g]isoquinolino[3,2-a]isoquinolin-7-ium hexafluorophosphate]	not affected	–
COc1ccc2cc3[n+](cc2c1OCCCCn1cc(COc2ccc4ccc(=O)oc4c2)nn1)CCc1cc2c(cc1-3)OCO2 [Compound 37, 10-Methoxy-9–(4-(4-(((2-oxo-2H-chromen-7-yl)oxy)methyl)-1H-1,2,3-triazol-1-yl)butoxy)-5,6-dihydro-[1,3]dioxolo[4,5-g]isoquinolino[3,2-a]isoquinolin-7-ium hexafluorophosphate]	around 30%	remarkable increase
COc1ccc2cc3[n+](cc2c1OCCCCCn1cc(COc2ccc4ccc(=O)oc4c2)nn1)CCc1cc2c(cc1-3)OCO2 [Compound 39, 10-Methoxy-9-((5–(4-(((2-oxo-2H-chromen-7-yl)oxy)methyl)-1H-1,2,3-triazol-1-yl)pentyl)oxy)-5,6-dihydro-[1,3]dioxolo[4,5-g]isoquinolino[3,2-a]isoquinolin-7-ium hexafluorophosphate]	not affected	–
